Data on 3 molecules can be found in US20130190407A1, “CALCIUM RECEPTOR-ACTIVE MOLECULES” (NPS Pharmaceuticals, Inc., priority 1991, published 2013).

Assay [1] deals with T1, parathyroid cell calcium receptor (Bos taurus, UniProt P35384).
T1 sequence (P35384 20-1085): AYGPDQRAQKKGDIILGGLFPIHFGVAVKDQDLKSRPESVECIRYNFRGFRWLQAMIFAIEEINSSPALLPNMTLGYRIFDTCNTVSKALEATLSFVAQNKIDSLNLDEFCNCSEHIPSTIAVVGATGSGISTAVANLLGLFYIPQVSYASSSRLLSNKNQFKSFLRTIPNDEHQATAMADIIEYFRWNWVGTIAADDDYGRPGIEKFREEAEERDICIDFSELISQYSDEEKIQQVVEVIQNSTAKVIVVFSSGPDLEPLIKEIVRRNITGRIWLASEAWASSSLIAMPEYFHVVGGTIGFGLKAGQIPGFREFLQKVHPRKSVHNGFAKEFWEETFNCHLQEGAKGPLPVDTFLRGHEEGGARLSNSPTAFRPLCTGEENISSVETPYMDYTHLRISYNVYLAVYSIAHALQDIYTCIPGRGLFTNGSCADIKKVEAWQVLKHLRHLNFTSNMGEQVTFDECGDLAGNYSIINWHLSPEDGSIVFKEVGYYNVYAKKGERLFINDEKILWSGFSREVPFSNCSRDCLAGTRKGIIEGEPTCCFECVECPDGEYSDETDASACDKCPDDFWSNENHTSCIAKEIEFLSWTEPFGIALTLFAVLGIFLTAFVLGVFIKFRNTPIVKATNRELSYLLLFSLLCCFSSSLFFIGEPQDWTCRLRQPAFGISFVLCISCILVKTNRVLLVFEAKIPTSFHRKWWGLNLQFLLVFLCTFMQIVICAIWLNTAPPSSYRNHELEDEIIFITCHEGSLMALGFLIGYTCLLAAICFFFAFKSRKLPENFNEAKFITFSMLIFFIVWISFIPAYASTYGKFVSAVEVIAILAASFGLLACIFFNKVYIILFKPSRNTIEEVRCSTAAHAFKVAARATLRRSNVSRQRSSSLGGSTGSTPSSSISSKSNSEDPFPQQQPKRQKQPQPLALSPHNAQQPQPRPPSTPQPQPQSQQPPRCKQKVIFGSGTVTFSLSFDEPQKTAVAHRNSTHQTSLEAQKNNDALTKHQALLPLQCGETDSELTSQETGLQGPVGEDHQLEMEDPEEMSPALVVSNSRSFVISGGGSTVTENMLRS
Description: Cl- current in Xenopus oocytes injected with bovine parathyroid cell poly(A)+-mRNA. The class given is cell-based. Details: Whole pieces of gland were used to prepare mRNA that directs the expression of the calcium receptor in Xenopus oocytes; expressed in transfected cells; host or cells: Xenopus laevis oocytes injected with total poly(A)+ mRNA from bovine parathyroid glands. To be noted: 30 μM. How it is done:
Following incubation, an oocyte was placed into a 100-μl plastic chamber and superfused with MBS at a flow rate of 0.5 ml/min using a peristaltic pump. Test molecules or inorganic polycations were added by rapidly moving the tubing into different buffers. Recording and current-passing electrodes were constructed from thin-wall capillary tubing pulled to a resistance of 1-3 Mohms and filled with 3 M KCl. […] Currents were recorded directly onto a strip chart recorder.
Dissociated bovine parathyroid cells were used to further explore the mechanism of action of NPS R-467 at the receptor level. […] It does, however, elicit responses in parathyroid cells and in oocytes when a small amount of extracellular Ca^2+ is present.

The next assay has as its system thyroidectomized animals. Description: Hypocalcemic response in thyroidectomized rats. In kind it is in vivo, rat. To be noted: 3 to 100 mg/kg p.o. The source says: In subsequent studies, rats received a thyroidectomy (parathyroid glands intact). This surgical procedure effectively removed the C-cells secreting calcitonin and therefore enabled the relative contributions of PTH and calcitonin to the hypocalcemic effect of this compound to be determined. […] The only difference was that the rate of onset of the hypocalcemic response was somewhat delayed in thyroidectomized animals. […] Stimulatory effects of this compound on calcitonin secretion increases the rate of onset, but not the extent, of hypocalcemia.

In the next assay the test system is Bovine parathyroid cells. The class given is cell-based. To be noted: 10 μM isoproterenol 15 min; no pertussis toxin; 2.0 mM Ca2+, 200 μM spermine, 30 μM neomycin B, 2 μg/ml protamine; mean ± SEM. As to the method: This section describes measuring cyclic AMP levels. Cells were incubated as above for PTH secretion studies and at the end of the incubation, a 0.15-ml sample was taken and transferred to 0.85 ml of hot (70° C.) water and heated at this temperature for 5-10 minutes. The tubes were subsequently frozen and thawed several times and the cellular debris sedimented by centrifugation. Portions of the supernatant were acetylated and cyclic AMP concentrations determined by radioimmunoassay.
Bovine parathyroid cells were cultured for 16 hours with or without 100 ng/ml pertussis toxin. […] Each value is the mean±SEM of three experiments.

The target in another assay is T2, calcium receptor (Bos taurus, UniProt P35384).
T2 construct: Whole pieces of gland were used to prepare mRNA that directs the expression of the calcium receptor in Xenopus oocytes; expressed in transfected cells; host or cells: Xenopus laevis oocytes injected with total poly(A)+ mRNA from bovine parathyroid glands
T2 sequence (P35384 20-1085): T1 sequence (P35384 20-1085)
Description: 45Ca2+ release from Xenopus oocytes injected with bovine parathyroid mRNA. In kind it is cell-based. To be noted: 10 mM for 20 min, compared to mock challenge with buffer. The source says:
For example, we have been able to detect calcium receptor expression in oocytes by measuring ^45Ca^2+ mobilization. […] Prior to being stimulated, oocytes were loaded with ^45Ca^2+. […] The assay is sensitive enough for use in cloning the calcium receptor, and has the advantage of a higher throughput than the electrophysiological measurement of Ca^2+-activated Cl^− current.

With `COc1cccc([C@@H](C)NCCCc2ccccc2)c1` (single isomer, unassigned) [NPS R-467], the Cl- current result in assay [1] is “rapid increase in Cl^− current”. `COc1cccc([C@@H](C)NCCCc2ccccc2Cl)c1` [NPS R-568, (R)-(+)-N-[3-(2-chlorophenyl)propyl]-α-methyl-3-methoxybenzylamine]: the hypocalcemic response entry with thyroidectomized animals was “hypocalcemic response equal in magnitude to that produced in sham-operated animals”. `NC[C@@H]1O[C@H](O[C@H]2[C@@H](O)[C@H](O[C@@H]3[C@@H](O)[C@H](N)C[C@H](N)[C@H]3O[C@H]3O[C@H](CN)[C@@H](O)[C@H](O)[C@H]3N)O[C@@H]2CO)[C@H](N)[C@@H](O)[C@@H]1O` [Neomycin B, neomycin B]: the “cyclic AMP (% of control), control” value in the assay on Bovine parathyroid cells was 28 ± 8 % of control. Further, on calcium receptor, the “increase in 45Ca2+ release” value came to 76%.
